Columns and labels:
barnyard grass [1] = experiment: Test Example 4: herbicidal effect by soil treatment (Table 19, symbol H); assay type: in vivo, barnyard grass (Echinochloa crus-galli)
Method in brief: (§1)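 Herbicidal effect was rated 3 weeks after treatment, using the scoring criteria of an earlier test. The compound, formulated as an emulsion and diluted in water to a set herbicide amount, had been sprayed uniformly on soil over freshly sown seeds. Growth took place in a greenhouse at 25° C. to 30° C.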

blackgrass [2] = experiment: Test Example 5: herbicidal effect by foliage application, plastic box (Table 20, symbol J); assay type: in vivo, blackgrass (Alopecurus myosuroides); details: foliage application, three weeks after application
Method in brief: (§2)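 Foliar spray test: emulsion formulation diluted in water to a set application rate, sprayed onto 14-day-old plants raised in diluvial soil at 25° C to 30° C under glass. Both herbicidal effect and crop effect rated visually three weeks later.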

Italian ryegrass [3] = experiment: Test Example 5: herbicidal effect by foliage application, plastic box (Table 20, symbol K); assay type: in vivo, Italian ryegrass (Lolium multiflorum); details: foliage application, three weeks after application
Method in brief: as §2

Italian ryegrass [4] = experiment: Test Example 4: herbicidal effect by soil treatment (Table 19, symbol K); assay type: in vivo, Italian ryegrass (Lolium multiflorum)
Method in brief: as §1

redroot pigweed [5] = experiment: Test Example 5: herbicidal effect by foliage application, plastic box (Table 20, symbol N); assay type: in vivo, redroot pigweed (Amaranthus retroflexus); details: foliage application, three weeks after application
Method in brief: as §2

green foxtail [6] = experiment: Test Example 5: herbicidal effect by foliage application, plastic box (Table 20, symbol G); assay type: in vivo, green foxtail (Setaria viridis); details: foliage application, three weeks after application
Method in brief: as §2

chickweed [7] = experiment: Test Example 5: herbicidal effect by foliage application, plastic box (Table 20, symbol P); assay type: in vivo, common chickweed (Stellaria media); details: foliage application, three weeks after application
Method in brief: as §2

windgrass [8] = experiment: Test Example 5: herbicidal effect by foliage application, plastic box (Table 20, symbol L); assay type: in vivo, windgrass (Apera spica-venti); details: foliage application, three weeks after application
Method in brief: as §2

lambsquarters [9] = experiment: Test Example 5: herbicidal effect by foliage application, plastic box (Table 20, symbol O); assay type: in vivo, lambsquarters (Chenopodium album); details: foliage application, three weeks after application
Method in brief: as §2

green foxtail [10] = experiment: Test Example 4: herbicidal effect by soil treatment (Table 19, symbol G); assay type: in vivo, green foxtail (Setaria viridis)
Method in brief: as §1

Chinese sprangletop = experiment: Test Example 3: herbicidal effect by foliage application, Wagner pot (Table 18, symbol D); assay type: in vivo, chinese sprangletop (Leptochloa chinensis)
Method in brief: (§3)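 Plants were sown in alluvial soil held under 0.1–0.5 cm standing water and grown 14 days in a greenhouse at 25–30 °C. An emulsifiable formulation, water-diluted to the set dose, was then sprayed onto the foliage, and effects were scored three weeks later using previously defined criteria.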

wild oat [11] = experiment: Test Example 5: herbicidal effect by foliage application, plastic box (Table 20, symbol I); assay type: in vivo, wild oat (Avena fatua); details: foliage application, three weeks after application
Method in brief: as §2

wild oat [12] = experiment: Test Example 4: herbicidal effect by soil treatment (Table 19, symbol I); assay type: in vivo, wild oat (Avena fatua)
Method in brief: as §1

redroot pigweed [13] = experiment: Test Example 4: herbicidal effect by soil treatment (Table 19, symbol N); assay type: in vivo, redroot pigweed (Amaranthus retroflexus)
Method in brief: as §1

false cleavers [14] = experiment: Test Example 4: herbicidal effect by soil treatment (Table 19, symbol Q); assay type: in vivo, false cleavers (Galium spurium)
Method in brief: as §1

rice flat sedge = experiment: Test Example 3: herbicidal effect by foliage application, Wagner pot (Table 18, symbol E); assay type: in vivo, rice flat sedge (Cyperus iria)
Method in brief: as §3

chickweed [15] = experiment: Test Example 4: herbicidal effect by soil treatment (Table 19, symbol P); assay type: in vivo, common chickweed (Stellaria media)
Method in brief: as §1

windgrass [16] = experiment: Test Example 4: herbicidal effect by soil treatment (Table 19, symbol L); assay type: in vivo, windgrass (Apera spica-venti)
Method in brief: as §1

southern crabgrass [17] = experiment: Test Example 5: herbicidal effect by foliage application, plastic box (Table 20, symbol F); assay type: in vivo, southern crabgrass (Digitaria ciliaris); details: foliage application, three weeks after application
Method in brief: as §2

blackgrass [18] = experiment: Test Example 4: herbicidal effect by soil treatment (Table 19, symbol J); assay type: in vivo, blackgrass (Alopecurus myosuroides)
Method in brief: as §1

velvetleaf [19] = experiment: Test Example 4: herbicidal effect by soil treatment (Table 19, symbol M); assay type: in vivo, velvetleaf (Abutilon theophrasti)
Method in brief: as §1

persian speedwell [20] = experiment: Test Example 4: herbicidal effect by soil treatment (Table 19, symbol R); assay type: in vivo, Persian speedwell (Veronica persica)
Method in brief: as §1

persian speedwell [21] = experiment: Test Example 5: herbicidal effect by foliage application, plastic box (Table 20, symbol R); assay type: in vivo, Persian speedwell (Veronica persica); details: foliage application, three weeks after application
Method in brief: as §2

lambsquarters [22] = experiment: Test Example 4: herbicidal effect by soil treatment (Table 19, symbol O); assay type: in vivo, lambsquarters (Chenopodium album)
Method in brief: as §1

southern crabgrass [23] = experiment: Test Example 4: herbicidal effect by soil treatment (Table 19, symbol F); assay type: in vivo, southern crabgrass (Digitaria ciliaris)
Method in brief: as §1

barnyard grass [24] = experiment: Test Example 5: herbicidal effect by foliage application, plastic box (Table 20, symbol H); assay type: in vivo, barnyard grass (Echinochloa crus-galli); details: foliage application, three weeks after application
Method in brief: as §2

velvetleaf [25] = experiment: Test Example 5: herbicidal effect by foliage application, plastic box (Table 20, symbol M); assay type: in vivo, velvetleaf (Abutilon theophrasti); details: foliage application, three weeks after application
Method in brief: as §2

barnyard grass [26] = experiment: Test Example 3: herbicidal effect by foliage application, Wagner pot (Table 18, symbol H); assay type: in vivo, barnyard grass (Echinochloa crus-galli)
Method in brief: as §3

false cleavers [27] = experiment: Test Example 5: herbicidal effect by foliage application, plastic box (Table 20, symbol Q); assay type: in vivo, false cleavers (Galium spurium); details: foliage application, three weeks after application
Method in brief: as §2

[28] = amount of applied herbicide 144 g/ha
[29] = amount of applied herbicide 320 g/ha

## Cc1nn(C)c(=O)c(-c2c(-c3ccc(C(F)(F)F)nc3)sc3ccccc23)c1O [1-078]
Barnyard grass [1]; [28]
  herbicidal effect rating, H: barnyard grass: 2 (Herbicidal rate of 20% or more and less than 40%)
Blackgrass [2]; 144 g/ha
  herbicidal effect grade, J: blackgrass: 0 (Herbicidal rate of 5% or less (almost no effect))
Italian ryegrass [3]; 144 g/ha
  herbicidal effect grade, K: Italian ryegrass: 0 (Herbicidal rate of 5% or less (almost no effect))
Italian ryegrass [4]; [28]
  herbicidal effect rating, K: Italian ryegrass: 0 (Herbicidal rate of 5% or less (almost no effect))
Redroot pigweed [5]; 144 g/ha
  herbicidal effect grade, N: redroot pigweed: 0 (Herbicidal rate of 5% or less (almost no effect))
Green foxtail [6]; 144 g/ha
  herbicidal effect grade, G: green foxtail: 0 (Herbicidal rate of 5% or less (almost no effect))
Chickweed [7]; 144 g/ha
  herbicidal effect grade, P: chickweed: 5 (Herbicidal rate of 90% or more (almost completely withered))
Windgrass [8]; 144 g/ha
  herbicidal effect grade, L: windgrass: 0 (Herbicidal rate of 5% or less (almost no effect))
Lambsquarters [9]; 144 g/ha
  herbicidal effect grade, O: lambsquarters: 2 (Herbicidal rate of 20% or more and less than 40%)
Green foxtail [10]; [28]
  herbicidal effect rating, G: green foxtail: 0 (Herbicidal rate of 5% or less (almost no effect))
Chinese sprangletop; 144 g/ha
  herbicidal effect on D (Chinese sprangletop), rating 0-5: 0 (Herbicidal rate of 5% or less (almost no effect))
Wild oat [11]; 144 g/ha
  herbicidal effect grade, I: wild oat: 0 (Herbicidal rate of 5% or less (almost no effect))
Wild oat [12]; [28]
  herbicidal effect rating, I: wild oat: 0 (Herbicidal rate of 5% or less (almost no effect))
Redroot pigweed [13]; [28]
  herbicidal effect rating, N: redroot pigweed: 0 (Herbicidal rate of 5% or less (almost no effect))
False cleavers [14]; [28]
  herbicidal effect rating, Q: false cleavers: 0 (Herbicidal rate of 5% or less (almost no effect))
Rice flat sedge; 144 g/ha
  herbicidal effect on E (rice flat sedge), rating 0-5: 3 (Herbicidal rate of 40% or more and less than 70%)
Chickweed [15]; [28]
  herbicidal effect rating, P: chickweed: 0 (Herbicidal rate of 5% or less (almost no effect))
Windgrass [16]; [28]
  herbicidal effect rating, L: windgrass: 0 (Herbicidal rate of 5% or less (almost no effect))
Southern crabgrass [17]; 144 g/ha
  herbicidal effect grade, F: southern crabgrass: 0 (Herbicidal rate of 5% or less (almost no effect))
Blackgrass [18]; [28]
  herbicidal effect rating, J: blackgrass: 0 (Herbicidal rate of 5% or less (almost no effect))
Velvetleaf [19]; [28]
  herbicidal effect rating, M: velvetleaf: 0 (Herbicidal rate of 5% or less (almost no effect))
Persian speedwell [20]; [28]
  herbicidal effect rating, R: persian speedwell: 2 (Herbicidal rate of 20% or more and less than 40%)
Persian speedwell [21]; 144 g/ha
  herbicidal effect grade, R: persian speedwell: 5 (Herbicidal rate of 90% or more (almost completely withered))
Lambsquarters [22]; [28]
  herbicidal effect rating, O: lambsquarters: 3 (Herbicidal rate of 40% or more and less than 70%)
Southern crabgrass [23]; [28]
  herbicidal effect rating, F: southern crabgrass: 0 (Herbicidal rate of 5% or less (almost no effect))
Barnyard grass [24]; 144 g/ha
  herbicidal effect grade, H: barnyard grass: 0 (Herbicidal rate of 5% or less (almost no effect))
Velvetleaf [25]; 144 g/ha
  herbicidal effect grade, M: velvetleaf: 5 (Herbicidal rate of 90% or more (almost completely withered))
Barnyard grass [26]; 144 g/ha
  herbicidal effect on H (barnyard grass), rating 0-5: 1 (Herbicidal rate of 5% or more and less than 20%)
False cleavers [27]; 144 g/ha
  herbicidal effect grade, Q: false cleavers: 1 (Herbicidal rate of 5% or more and less than 20%)

## Cc1nn(C)c(=O)c(-c2c(-c3ccsc3)sc3ccccc23)c1O [1-083]
Barnyard grass [1]; [29]
  herbicidal effect rating, H: barnyard grass: 0 (Herbicidal rate of 5% or less (almost no effect))
Blackgrass [2]; 320 g/ha
  herbicidal effect grade, J: blackgrass: 1 (Herbicidal rate of 5% or more and less than 20%)
Italian ryegrass [3]; 320 g/ha
  herbicidal effect grade, K: Italian ryegrass: 4 (Herbicidal rate of 70% or more and less than 90%)
Italian ryegrass [4]; [29]
  herbicidal effect rating, K: Italian ryegrass: 3 (Herbicidal rate of 40% or more and less than 70%)
Redroot pigweed [5]; 320 g/ha
  herbicidal effect grade, N: redroot pigweed: 3 (Herbicidal rate of 40% or more and less than 70%)
Green foxtail [6]; 320 g/ha
  herbicidal effect grade, G: green foxtail: 0 (Herbicidal rate of 5% or less (almost no effect))
Chickweed [7]; 320 g/ha
  herbicidal effect grade, P: chickweed: 5 (Herbicidal rate of 90% or more (almost completely withered))
Windgrass [8]; 320 g/ha
  herbicidal effect grade, L: windgrass: 3 (Herbicidal rate of 40% or more and less than 70%)
Lambsquarters [9]; 320 g/ha
  herbicidal effect grade, O: lambsquarters: 0 (Herbicidal rate of 5% or less (almost no effect))
Green foxtail [10]; [29]
  herbicidal effect rating, G: green foxtail: 0 (Herbicidal rate of 5% or less (almost no effect))
Chinese sprangletop; 320 g/ha
  herbicidal effect on D (Chinese sprangletop), rating 0-5: 3 (Herbicidal rate of 40% or more and less than 70%)
Wild oat [11]; 320 g/ha
  herbicidal effect grade, I: wild oat: 3 (Herbicidal rate of 40% or more and less than 70%)
Wild oat [12]; [29]
  herbicidal effect rating, I: wild oat: 2 (Herbicidal rate of 20% or more and less than 40%)
Redroot pigweed [13]; [29]
  herbicidal effect rating, N: redroot pigweed: 0 (Herbicidal rate of 5% or less (almost no effect))
False cleavers [14]; [29]
  herbicidal effect rating, Q: false cleavers: 3 (Herbicidal rate of 40% or more and less than 70%)
Rice flat sedge; 320 g/ha
  herbicidal effect on E (rice flat sedge), rating 0-5: 4 (Herbicidal rate of 70% or more and less than 90%)
Chickweed [15]; [29]
  herbicidal effect rating, P: chickweed: 5 (Herbicidal rate of 90% or more (almost completely withered))
Windgrass [16]; [29]
  herbicidal effect rating, L: windgrass: 0 (Herbicidal rate of 5% or less (almost no effect))
Southern crabgrass [17]; 320 g/ha
  herbicidal effect grade, F: southern crabgrass: 2 (Herbicidal rate of 20% or more and less than 40%)
Blackgrass [18]; [29]
  herbicidal effect rating, J: blackgrass: 0 (Herbicidal rate of 5% or less (almost no effect))
Velvetleaf [19]; [29]
  herbicidal effect rating, M: velvetleaf: 0 (Herbicidal rate of 5% or less (almost no effect))
Persian speedwell [20]; [29]
  herbicidal effect rating, R: persian speedwell: 5 (Herbicidal rate of 90% or more (almost completely withered))
Persian speedwell [21]; 320 g/ha
  herbicidal effect grade, R: persian speedwell: 3 (Herbicidal rate of 40% or more and less than 70%)
Lambsquarters [22]; [29]
  herbicidal effect rating, O: lambsquarters: 0 (Herbicidal rate of 5% or less (almost no effect))
Southern crabgrass [23]; [29]
  herbicidal effect rating, F: southern crabgrass: 0 (Herbicidal rate of 5% or less (almost no effect))
Barnyard grass [24]; 320 g/ha
  herbicidal effect grade, H: barnyard grass: 0 (Herbicidal rate of 5% or less (almost no effect))
Velvetleaf [25]; 320 g/ha
  herbicidal effect grade, M: velvetleaf: 5 (Herbicidal rate of 90% or more (almost completely withered))
Barnyard grass [26]; 320 g/ha
  herbicidal effect on H (barnyard grass), rating 0-5: 3 (Herbicidal rate of 40% or more and less than 70%)
False cleavers [27]; 320 g/ha
  herbicidal effect grade, Q: false cleavers: 4 (Herbicidal rate of 70% or more and less than 90%)

From patent publication US20230085307A1, “PYRIDAZINONE COMPOUND AND HERBICIDE” (NISSAN CHEMICAL CORPORATION, priority 2019, published 2023)
